Results from ChEMBL document CHEMBL1124462, “Synthesis, DNA binding, and biological evaluation of synthetic precursors and novel analogues of netropsin” (J Med Chem, 1989).
In brackets after ≈: the same amount, converted by molar mass.

test system: Vaccinia virus; assay: Minimum inhibitory concentration required to reduce vaccinia virus induced cytopathogenicity by 50% in primary rabbit kidney cells (PRK); assay type: functional; settings: Orthopoxvirus vaccinia

| SMILES | MIC [µg/mL] |
| --- | --- |
| Cn1cc([N+](=O)[O-])cc1C(=O)NCCC#N | > 200 |
| Cn1c(C(=O)NCCC#N)ccc1[N+](=O)[O-] | > 200 |
| COC(=O)c1ccc([N+](=O)[O-])n1C | > 400 |
| Cn1cc(NC(=O)c2cc([N+](=O)[O-])cn2C)cc1C(=O)O | > 400 |
| CC(NC(=O)C(C)NC(=O)c1cc(NC(=O)c2cc(NC(=O)CNC(=N)N)cn2C)cn1C)C(=O)O (centres undefined) | > 400 |
| CC(NC(=O)c1cc(NC(=O)c2cc(NC(=O)CNC(=N)N)cn2C)cn1C)C(=O)O (centres undefined) | > 200 |
| CC(NC(=O)c1cc(NC(=O)c2cc(NC(=O)CNC(=N)N)cn2C)cn1C)C(=O)OC(C)(C)C (centres undefined) | 150 (≈ 307 µM) |
| Cn1cc(NC(=O)c2cc(NC(=O)CNC(=N)N)cn2C)cc1C(=O)NCCCNCCCCN | > 200 |
| CC(NC(=O)c1cc(NC(=O)c2cc(NC(=O)CNC(=N)N)cn2C)cn1C)C(=O)NC(C)C(=O)OC(C)(C)C (centres undefined) | > 200 |
| Cn1cc(NC(=O)CNC(=N)N)cc1C(=O)NCCCNCCCCN | > 400 |
| CC(NC(=O)c1cc(NC(=O)c2cc([N+](=O)[O-])cn2C)cn1C)C(=O)OC(C)(C)C (centres undefined) | > 40 |
| Cn1cc(NC(=O)c2cc([N+](=O)[O-])cn2C)cc1C(=O)NCCC#N | > 10 |
| Cn1cc(NC(=O)c2cc([N+](=O)[O-])cn2C)cc1C(=O)NCCC(=N)N | > 100 |
| CC(NC(=O)c1cc(NC(=O)c2cc([N+](=O)[O-])cn2C)cn1C)C(=O)NC(C)C(=O)OC(C)(C)C (centres undefined) | > 100 |
| Cn1cc([N+](=O)[O-])cc1C(=O)O | > 400 |
| Cn1c(C(=O)O)ccc1[N+](=O)[O-] | > 200 |
| COC(=O)c1cc(NC(=O)c2cc([N+](=O)[O-])cn2C)cn1C | > 10 |
| C[C@H](NC(=O)[C@H](C)NC(=O)[C@H](C)NC(=O)c1cc(NC(=O)c2cc(NC(=O)CNC(=N)N)cn2C)cn1C)C(=O)O | > 400 |
| C[C@H](NC(=O)c1cc(NC(=O)c2cc(NC(=O)CNC(=N)N)cn2C)cn1C)C(=O)N[C@@H](C)C(=O)N[C@@H](C)C(=O)OC(C)(C)C | > 100 |
| C[C@H](NC(=O)c1cc(NC(=O)c2cc([N+](=O)[O-])cn2C)cn1C)C(=O)N[C@@H](C)C(=O)N[C@@H](C)C(=O)OC(C)(C)C | > 100 |
| Cn1cc([N+](=O)[O-])cc1C(=O)NCCC(=N)N | > 200 |
| Cn1c(C(=O)NCCC(=N)N)ccc1[N+](=O)[O-] | > 100 |
| Cn1cc([N+](=O)[O-])cc1C(=O)NCCCNCCCCN | > 200 |
| Cn1cc(NC(=O)c2cc([N+](=O)[O-])cn2C)cc1C(=O)NCCCNCCCCN | > 200 |
| Nc1nccc2c1ncn2[C@@H]1C[C@H](CO)[C@@H](O)[C@H]1O [3-DEAZAARISTEROMYCIN A] | 2 (≈ 7.57 µM) |
| Nc1ncnc2c1ncn2C[C@H](O)CO [(S)-DHPA] | 70 (≈ 335 µM) |
| Cn1cc(NC(=O)c2cc(NC(=O)CNC(=N)N)cn2C)cc1C(=O)NCCC(=N)N [NETROPSIN] | 70 (≈ 163 µM) |
| NC(=O)c1ncn([C@@H]2O[C@H](CO)[C@@H](O)[C@H]2O)n1 [RIBAVIRIN] | 2 (≈ 8.19 µM) |
| Nc1ncnc2c1ccn2[C@@H]1O[C@H](CO)[C@@H](O)[C@H]1O [TUBERCIDIN] | 0.07 (≈ 0.263 µM) |
